Reference: ChEMBL document CHEMBL4130554, “Inducing Secondary Metabolite Production by Combined Culture of Talaromyces aculeatus and Penicillium variabile” (J Nat Prod, 2017)

How the values were obtained:
K562 = test: Cytotoxicity against human K562 cells by MTT method; assay type: functional, cell-based
MCF7 = test: Cytotoxicity against human MCF7 cells by SRB method; assay type: functional, cell-based
A549 = test: Cytotoxicity against human A549 cells by SRB method
HeLa = test: Cytotoxicity against human HeLa cells by SRB method; assay type: functional, cell-based
HL-60 = test: Cytotoxicity against human HL60 cells by MTT method
HCT-116 = test: Cytotoxicity against human HCT116 cells by SRB method

SMILES	IC50 (K562) [µM]	IC50 (MCF7) [µM]	IC50 (A549) [µM]	IC50 (HeLa) [µM]	IC50 (HL-60) [µM]	IC50 (HCT-116) [µM]
CC[C@H](C)/C=C/C=C(\C)C[C@@H](C)/C=C/C=C/[C@H]1OC(=O)[C@H](O)[C@@H]2O[C@]12C	> 50	> 50	> 50	> 50	> 50	> 50
COC(=O)[C@@H]1O[C@@H](/C=C/C=C/[C@H](C)C/C(C)=C/C=C/[C@@H](C)CCO)[C@@]2(C)O[C@@H]12	> 50	> 50	> 50	> 50	> 50	> 50
CC[C@H](C)/C=C/C=C(\C)C[C@@H](C)/C=C/C=C/[C@H]1OC(=O)C=C[C@]1(C)O	2.9	9.8	5.1	5.5	1.2	1.4
CC[C@H](C)/C=C/C=C(\C)C[C@@H](C)/C=C/C=C/[C@@H]1O[C@@H](C(=O)OC)[C@@H]2O[C@]12C	> 50	> 50	> 50	> 50	> 50	> 50
CC[C@@H](/C=C/C=C(\C)C[C@@H](C)/C=C/C=C/[C@@H]1O[C@@H](C(=O)OC)[C@@H]2O[C@]12C)CO	> 50	> 50	> 50	> 50	> 50	> 50
COc1cccc2c1C(=O)c1c(O)c3c(c(O)c1C2=O)C[C@@](O)(C(=O)CO)C[C@@H]3O[C@H]1C[C@H](N)[C@H](O)[C@H](C)O1 [DOXORUBICIN]	0.6	0.6	–	0.5	–	–
